Measured values published in patent US20220162167A1, “SUBSTITUTED BICYCLIC AND TETRACYCLIC QUINONES AND USE THEREOF AS ANTI-CANCER AGENTS” (THE REGENTS OF THE UNIVERSITY OF MICHIGAN, priority 2019, published 2022).

Tests used:
Format in all cases: cell-based
[1] = system: MALME-3M; test: NCI60 growth inhibition, MALME-3M; settings: Melanoma
Method: (§1) Representative compounds were tested in 60 cell lines (NCI60) at the National Cancer Institute, Developmental Therapeutics Program.
(§2) Representative compounds were tested in a panel of 60 cancer cells (NCI 60) at the National Cancer Institute. Growth inhibition are shown in table 2, table 3, table 4, table 5, and FIG. 1, FIG. 2, FIG. 3, FIG. 4, FIG. 5.

[2] = system: UACC-257; test: NCI60 growth inhibition, UACC-257; settings: Melanoma; further: test concentration or dose not given here
Method: as §1, §2

[3] = system: UACC-62; test: NCI60 growth inhibition, UACC-62; settings: Melanoma; further: test concentration or dose not given here
Method: as §1, §2

[4] = system: SK-MEL-2; test: NCI60 growth inhibition, SK-MEL-2; settings: Melanoma; further: test concentration or dose not given here
Method: as §1, §2

[5] = system: MDA-MB-231/ATCC; test: NCI60 growth inhibition, MDA-MB-231/ATCC; settings: Breast Cancer
Method: as §1, §2

[6] = system: A549/ATCC; test: NCI60 growth inhibition, A549/ATCC; settings: Non-Small Cell Lung Cancer
Method: as §1, §2

[7] = system: KM12; test: NCI60 growth inhibition, KM12; settings: Colon Cancer; further: test concentration or dose not given here
Method: as §1, §2

[8] = system: OVCAR-4; test: NCI60 growth inhibition, OVCAR-4; settings: Ovarian Cancer; further: test concentration or dose not given here
Method: as §1, §2

[9] = system: CAKI-1; test: NCI60 growth inhibition, CAKI-1; settings: Renal Cancer; further: test concentration or dose not given here
Method: as §1, §2

[10] = system: SNB-75; test: NCI60 growth inhibition, SNB-75; settings: CNS Cancer; further: test concentration or dose not given here
Method: as §1, §2

[11] = system: SW-620; test: NCI60 growth inhibition, SW-620; settings: Colon Cancer; further: test concentration or dose not given here
Method: as §1, §2

[12] = system: HOP-62; test: NCI60 growth inhibition, HOP-62; settings: Non-Small Cell Lung Cancer; further: test concentration or dose not given here
Method: as §1, §2

[13] = system: HCT-15; test: NCI60 growth inhibition, HCT-15; settings: Colon Cancer; further: test concentration or dose not given here
Method: as §1, §2

[14] = system: BT-549; test: NCI60 growth inhibition, BT-549; settings: Breast Cancer
Method: as §1, §2

[15] = system: K-562; test: NCI60 growth inhibition, K-562; settings: Leukemia
Method: as §1, §2

[16] = system: NCI/ADR-RES; test: NCI60 growth inhibition, NCI/ADR-RES; settings: Ovarian Cancer
Method: as §1, §2

[17] = system: SF-268; test: NCI60 growth inhibition, SF-268; settings: CNS Cancer; further: test concentration or dose not given here
Method: as §1, §2

[18] = system: A498; test: NCI60 growth inhibition, A498; settings: Renal Cancer; further: test concentration or dose not given here
Method: as §1, §2

[19] = system: SK-MEL-5; test: NCI60 growth inhibition, SK-MEL-5; settings: Melanoma
Method: as §1, §2

[20] = system: SF-295; test: NCI60 growth inhibition, SF-295; settings: CNS Cancer; further: test concentration or dose not given here
Method: as §1, §2

[21] = system: SNB-19; test: NCI60 growth inhibition, SNB-19; settings: CNS Cancer; further: test concentration or dose not given here
Method: as §1, §2

[22] = system: NCI-H226; test: NCI60 growth inhibition, NCI-H226; settings: Non-Small Cell Lung Cancer; further: test concentration or dose not given here
Method: as §1, §2

[23] = system: LOX IMVI; test: NCI60 growth inhibition, LOX IMVI; settings: Melanoma
Method: as §1, §2

[24] = system: HT29; test: NCI60 growth inhibition, HT29; settings: Colon Cancer
Method: as §1, §2

[25] = system: UO-31; test: NCI60 growth inhibition, UO-31; settings: Renal Cancer
Method: as §1, §2

[26] = system: CCRF-CEM; test: NCI60 growth inhibition, CCRF-CEM; settings: Leukemia
Method: as §1, §2

[27] = system: IGROV1; test: NCI60 growth inhibition, IGROV1; settings: Ovarian Cancer
Method: as §1, §2

[28] = system: RPMI-8226; test: NCI60 growth inhibition, RPMI-8226; settings: Leukemia
Method: as §1, §2

[29] = system: OVCAR-5; test: NCI60 growth inhibition, OVCAR-5; settings: Ovarian Cancer
Method: as §1, §2

[30] = system: DU-145; test: NCI60 growth inhibition, DU-145; settings: Prostate Cancer
Method: as §1, §2

[31] = system: HCC-2998; test: NCI60 growth inhibition, HCC-2998; settings: Colon Cancer
Method: as §1, §2

[32] = system: ACHN; test: NCI60 growth inhibition, ACHN; settings: Renal Cancer
Method: as §1, §2

[33] = system: SF-539; test: NCI60 growth inhibition, SF-539; settings: CNS Cancer
Method: as §1, §2

[34] = system: SR; test: NCI60 growth inhibition, SR; settings: Leukemia
Method: as §1, §2

[35] = system: SK-MEL-28; test: NCI60 growth inhibition, SK-MEL-28; settings: Melanoma
Method: as §1, §2

[36] = system: EKVX; test: NCI60 growth inhibition, EKVX; settings: Non-Small Cell Lung Cancer
Method: as §1, §2

[37] = system: PC-3; test: NCI60 growth inhibition, PC-3; settings: Prostate Cancer
Method: as §1, §2

[38] = system: NCI-H522; test: NCI60 growth inhibition, NCI-H522; settings: Non-Small Cell Lung Cancer
Method: as §1, §2

[39] = system: SN12C; test: NCI60 growth inhibition, SN12C; settings: Renal Cancer
Method: as §1, §2

[40] = system: TK-10; test: NCI60 growth inhibition, TK-10; settings: Renal Cancer
Method: as §1, §2

[41] = system: HCT-116; test: NCI60 growth inhibition, HCT-116; settings: Colon Cancer
Method: as §1, §2

[42] = system: M14; test: NCI60 growth inhibition, M14; settings: Melanoma
Method: as §1, §2

[43] = system: HOP-92; test: NCI60 growth inhibition, HOP-92; settings: Non-Small Cell Lung Cancer
Method: as §1, §2

[44] = system: HL-60(TB); test: NCI60 growth inhibition, HL-60(TB); settings: Leukemia
Method: as §1, §2

[45] = system: NCI-H23; test: NCI60 growth inhibition, NCI-H23; settings: Non-Small Cell Lung Cancer
Method: as §1, §2

[46] = system: MDA-MB-468; test: NCI60 growth inhibition, MDA-MB-468; settings: Breast Cancer; further: test concentration or dose not given here
Method: as §1, §2

[47] = system: NCI-H460; test: NCI60 growth inhibition, NCI-H460; settings: Non-Small Cell Lung Cancer
Method: as §1, §2

[48] = system: MCF7; test: NCI60 growth inhibition, MCF7; settings: Breast Cancer
Method: as §1, §2

[49] = system: 786-0; test: NCI60 growth inhibition, 786-0; settings: Renal Cancer
Method: as §1, §2

[50] = system: MDA-MB-435; test: NCI60 growth inhibition, MDA-MB-435; settings: Melanoma
Method: as §1, §2

[51] = system: T-47D; test: NCI60 growth inhibition, T-47D; settings: Breast Cancer
Method: as §1, §2

[52] = system: OVCAR-3; test: NCI60 growth inhibition, OVCAR-3; settings: Ovarian Cancer
Method: as §1, §2

[53] = system: SK-OV-3; test: NCI60 growth inhibition, SK-OV-3; settings: Ovarian Cancer
Method: as §1, §2

[54] = system: COLO 205; test: NCI60 growth inhibition, COLO 205; settings: Colon Cancer
Method: as §1, §2

[55] = system: U251; test: NCI60 growth inhibition, U251; settings: CNS Cancer
Method: as §1, §2

[56] = system: NCI-H322M; test: NCI60 growth inhibition, NCI-H322M; settings: Non-Small Cell Lung Cancer
Method: as §1, §2

[57] = system: HS 578T; test: NCI60 growth inhibition, HS 578T; settings: Breast Cancer
Method: as §1, §2

[58] = system: MOLT-4; test: NCI60 growth inhibition, MOLT-4; settings: Leukemia
Method: as §1, §2

SMILES: CN1CCN(c2cc(F)c(NC3=C(Cl)C(=O)c4ncccc4C3=O)c(F)c2)CC1 [Compound 1, 7-chloro-6-((2,6-difluoro-4-(4-methylpiperazin-1-yl)phenyl)amino)quinoline-5,8-dione]
- Growth inhibition (% control) GIPRCNT [1]: −96.0656 % control
- Growth inhibition (% control) GIPRCNT [2]: −62.2412 % control
- Growth inhibition (% control) GIPRCNT [3]: −45.6278 % control
- Growth inhibition (% control) GIPRCNT [4]: −49.6035 % control
- Growth inhibition (% control) GIPRCNT [5]: −31.9795 % control
- Growth inhibition (% control) GIPRCNT [6]: 74.56 % control
- Growth inhibition (% control) GIPRCNT [7]: 82.37 % control
- Growth inhibition (% control) GIPRCNT [8]: −99.2407 % control
- Growth inhibition (% control) GIPRCNT [9]: −85.6094 % control
- Growth inhibition (% control) GIPRCNT [10]: 38.01 % control
- Growth inhibition (% control) GIPRCNT [11]: −76.6429 % control
- Growth inhibition (% control) GIPRCNT [12]: 83.28 % control
- Growth inhibition (% control) GIPRCNT [13]: −8.531 % control
- Growth inhibition (% control) GIPRCNT [14]: 80.52 % control
- Growth inhibition (% control) GIPRCNT [15]: −0.8345 % control
- Growth inhibition (% control) GIPRCNT [16]: 37.87 % control
- Growth inhibition (% control) GIPRCNT [17]: 48.73 % control
- Growth inhibition (% control) GIPRCNT [18]: 80.11 % control
- Growth inhibition (% control) GIPRCNT [19]: −91.7268 % control
- Growth inhibition (% control) GIPRCNT [20]: 78.81 % control
- Growth inhibition (% control) GIPRCNT [21]: 96.33 % control
- Growth inhibition (% control) GIPRCNT [22]: 85.32 % control
- Growth inhibition (% control) GIPRCNT [23]: −70.2674 % control
- Growth inhibition (% control) GIPRCNT [24]: 11.1525 % control
- Growth inhibition (% control) GIPRCNT [25]: −100 % control
- Growth inhibition (% control) GIPRCNT [26]: −18.2389 % control
- Growth inhibition (% control) GIPRCNT [27]: −90.4429 % control
- Growth inhibition (% control) GIPRCNT [28]: −20.7257 % control
- Growth inhibition (% control) GIPRCNT [29]: −59.8079 % control
- Growth inhibition (% control) GIPRCNT [30]: −67.5681 % control
- Growth inhibition (% control) GIPRCNT [31]: 61.85 % control
- Growth inhibition (% control) GIPRCNT [32]: −93.058 % control
- Growth inhibition (% control) GIPRCNT [33]: −25.0889 % control
- Growth inhibition (% control) GIPRCNT [34]: −0.8134 % control
- Growth inhibition (% control) GIPRCNT [35]: −55.0718 % control
- Growth inhibition (% control) GIPRCNT [36]: −82.6636 % control
- Growth inhibition (% control) GIPRCNT [37]: 11.83 % control
- Growth inhibition (% control) GIPRCNT [38]: −59.746 % control
- Growth inhibition (% control) GIPRCNT [39]: −97.4828 % control
- Growth inhibition (% control) GIPRCNT [40]: 8.462 % control
- Growth inhibition (% control) GIPRCNT [41]: −69.7462 % control
- Growth inhibition (% control) GIPRCNT [42]: −40.5376 % control
- Growth inhibition (% control) GIPRCNT [43]: −79.9407 % control
- Growth inhibition (% control) GIPRCNT [44]: −26.4294 % control
- Growth inhibition (% control) GIPRCNT [45]: −61.2055 % control
- Growth inhibition (% control) GIPRCNT [46]: −73.911 % control
- Growth inhibition (% control) GIPRCNT [47]: 9.912 % control
- Growth inhibition (% control) GIPRCNT [48]: −58.1831 % control
- Growth inhibition (% control) GIPRCNT [49]: −72.0362 % control
- Growth inhibition (% control) GIPRCNT [50]: −75.7981 % control
- Growth inhibition (% control) GIPRCNT [51]: −32.5382 % control
- Growth inhibition (% control) GIPRCNT [52]: −98.2241 % control
- Growth inhibition (% control) GIPRCNT [53]: 82.67 % control
- Growth inhibition (% control) GIPRCNT [54]: 33.98 % control
- Growth inhibition (% control) GIPRCNT [55]: −9.877 % control
- Growth inhibition (% control) GIPRCNT [56]: 101.8249 % control
- Growth inhibition (% control) GIPRCNT [57]: −16.4793 % control
- Growth inhibition (% control) GIPRCNT [58]: −22.6883 % control
